Consider 13 molecules from patent US9315546B2, “Growth hormone secretatogue receptor antagonists and uses thereof” (The Administrators of the Tulane Educational Fund, priority 2010, dated 2016).

Where “and” joins values, the source holds several entries; their conditions need not be identical. Equal values may be shown once. Where no end group is shown, it is not given here. [ ]: non-standard residue; d: D form. Aib = CC(C)(N)C(=O)O

The target in assay [1] is T1, Ghrelin/GHRP/GHS Receptor (Rattus norvegicus, UniProt O08725). Put plainly: In vivo GH release in rat after i.v. peptide (serum GH by RIA). How it is done:
For the in vivo assay of GH Release in rat, immature female Sprague Dawley rats were obtained from Charles River from Wilmington, Mass. After arrival they were housed at 25° C. with a 14:10 h light:dark cycle. Water and Purina rat chow were available at libitum. Pups were weaned at 21 days of age.
Immature twenty six day old female Sprague Dawley rats, 3-6 rats per treatment dose, were pretreated with pentobarbital 20 minutes before iv injection of vehicle/peptide or peptide plus stimulator. Injection was made as a 0.1 ml solution. For the non-pentobarbital treated rat assay, peptides were administered iv into the tail vein of conscious rats. All animals were sacrificed by guillotine after iv peptide or vehicle. Trunk blood was collected at +10-15 minutes […], allowed to clot, centrifuged and serum stored until assayed for GH levels by RIA. The GH RIA reagents were distributed by the NIH. Control data was collected from rats treated with only the corresponding vehicle in the absence of peptide or stimulator. Control stimulated data was collected from rats treated with stimulator alone in the absence of any peptide.

The target in assay [2] is T1, Ghrelin/GHRP/GHS Receptor. Put plainly: GH release from cell culture of pituitary cells. It counts as cell-based. As to conditions: for Unstimulated Basal GH release: Table 8; for Stimulated GH release (P + S) / Unstimulated GH release: Table 10. The arrangement: After dispersion, the cells were collected by centrifugation, wash with DMEM and placed into culture well; endogenous in cells; host or cells: dispersed primary rat pituitary cells, 4 days in culture. As for the experimental part:
In vitro GH Release-Female rats of the CD-1 strain were housed in a constant temperature room at 24° C. with 14 h light and 10 h darkness. The rats were fed Purina Rat chow and water at libitum. All studies were started between 0800-1000 hours. Pituitaries of mature female Sprague Dawley rats were rapidly removed after decapitation, neurointermediate lobe discarded and then placed in a pH 7.4 buffer. The pituitaries were cut into ˜3-mm pieces and then transferred to a flask containing HEPS buffer with trypsin and incubated at 37° C. Cells were triturated several times during this period. After dispersion, the cells were collected by centrifugation, wash with DMEM and placed into culture well. Cell cultures were maintained for 4 days at 37° with 8% CO2 added to the incubator atmosphere. After 4 days in culture, cells were washed with lactated Ringer's solution adjusted to pH 7.2-7.4 and then vehicle, peptide alone or peptide plus stimulator was added to media. Incubation time was 60-120 minutes after which media was removed from each well for GH determination. The GH RIA reagents were distributed by the NIH. Control data was collected from cell cultures treated with only the corresponding vehicle in the absence of peptide or stimulator. Control stimulated data was collected from cell cultures treated with stimulator alone in the absence of any peptide.

Setting [3] is: Table 3, peptide alone 1 μg i.v.
Setting [4] is: Table 3, peptide alone 3 μg i.v.
Where [5] appears, read: Table 3, peptide alone 10 μg i.v.
[6] abbreviates: Table 3, peptide alone 30 μg i.v.
The mark [7] stands for this setting: Table 3, peptide alone 100 μg i.v.
Where [8] appears, read: Table 5, peptide alone 10 μg i.v.
The mark [9] stands for this setting: Table 5, peptide alone 30 μg i.v.
The mark [10] stands for this setting: Table 5, peptide alone 1 μg i.v.

T1 sequence (O08725 whole entry): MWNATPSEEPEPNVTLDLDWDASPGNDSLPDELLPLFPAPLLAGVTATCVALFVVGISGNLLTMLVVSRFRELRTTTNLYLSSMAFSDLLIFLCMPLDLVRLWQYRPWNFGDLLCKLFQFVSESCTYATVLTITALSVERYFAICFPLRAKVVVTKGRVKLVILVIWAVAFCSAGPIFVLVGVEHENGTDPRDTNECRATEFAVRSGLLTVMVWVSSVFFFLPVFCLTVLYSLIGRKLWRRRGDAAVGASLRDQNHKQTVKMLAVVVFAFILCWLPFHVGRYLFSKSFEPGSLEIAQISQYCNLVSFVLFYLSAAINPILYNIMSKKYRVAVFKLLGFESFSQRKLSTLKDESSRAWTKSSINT

For the molecule “DAla-DcyclohexylAla-Ala-Phe-DPhe-Nle-NH2”, the “Unstimulated Basal GH release” value in assay [1] (setting [3]) turned out to be 435 ± 152 ng/mL; in assay [1] (setting [4]), 195 ± 34 ng/mL; in assay [1] (setting [5]), 250 ± 41 ng/mL; in assay [1] (setting [6]), 393 ± 51 ng/mL; in assay [1] (setting [7]) it was 697 ± 75 ng/mL.

On to “H[dW]FW[dF]K-NH2 [8-His-DTrp-Phe-Trp-DPhe-Lys-NH2]”, for which the “Unstimulated Basal GH release” value was 67 ± 14 ng/mL in assay [1] (setting [3]), 141 ± 53 ng/mL in assay [1] (setting [4]), 197 ± 70 ng/mL in assay [1] (setting [5]) and 509 ± 48 ng/mL in assay [1] (setting [6]).

On to “DAla-DβNal-Ala-Ala-DAla-Lys-NH2 [6-DAla-DβNal-Ala-Ala-DAla-Lys-NH2]”, for which the “Unstimulated Basal GH release” value in assay [1] (setting [4]) was 235 ± 43 ng/mL; in assay [1] (setting [5]), 178 ± 33 ng/mL; in assay [1] (setting [6]) it was 172 ± 15 ng/mL; in assay [1] (setting [7]) it was 185 ± 39 ng/mL.

Consider “inip-Trp-Trp-Phe-NH2 [10-inip-Trp-Trp-Phe-NH2]”, for which the entries for the “Unstimulated Basal GH release” value in assay [1] (setting [8]) and in assay [1] (setting [9]) were 69 ± 3 ng/mL and 81 ± 10 ng/mL, respectively.

“αAbu-DTrp-DTrp-Orn-NH2 [4-αAbu-DTrp-DTrp-Orn-NH2]”: the “Unstimulated Basal GH release” value in assay [1] (setting [10]) stood at 85 ± 25 ng/mL; in assay [1] (setting [8]) it was 88 ± 18 ng/mL; in assay [1] (setting [9]), 50 ± 6 ng/mL.

With “HW[dA][dW]FK-NH2 [11-His-Trp-DAla-DTrp-Phe-LysNH2]”, the entries for the “Unstimulated Basal GH release” value in assay [1] (setting [3]), in assay [1] (setting [4]) and in assay [1] (setting [5]) were 204 ± 44 ng/mL, 127 ± 44 ng/mL and 83 ± 5 ng/mL, respectively.

With “AH[dW][dK]W[dF]K-NH2 [5-Ala-His-DTrp-DLys-Trp-DPhe-Lys-NH2]”, the “Stimulated GH release” value in assay [1] (peptide antagonist 30 μg i.v. + stimulator 0.3 μg) was determined as 1487 ± 397 ng/mL.

For the molecule “αγAbu-DTrp-DTrp-Lys-NH2 [2-αγAbu-DTrp-DTrp-Lys-NH2]”, the “Unstimulated Basal GH release” value amounted to 57 ± 7 ng/mL in assay [1] (setting [10]); 84 ± 18 ng/mL in assay [1] (Table 5, peptide alone 3 μg i.v.); 62 ± 15 ng/mL in assay [1] (setting [8]).

As to “Y[dA]F[Aib]-NH2 [1-Tyr-DAla-Phe-Aib-NH2]”, the “Stimulated GH release (P + S)” value in assay [1] (Non-Pentobarbital Rats, peptide 30 μg i.v. + stimulator 10 μg) amounted to 23 ± 5 ng/mL. Besides, the “Unstimulated GH release (−S)” value in assay [1] (Non-Pentobarbital Rats, peptide alone 30 μg i.v.) is 18 ± 1 ng/mL.

On to “Alaψ[CH2NH]-DβNal-Ala-Trp-DPhe-Lys-NH2 [6-Alaψ[CH2NH]-DβNal-Ala-Trp-DPhe-Lys-NH2]”, for which the “Stimulated GH release” value in assay [1] (peptide antagonist 3 μg i.v. + stimulator 1 μg) is 2771 ± 157 ng/mL; in assay [1] (peptide antagonist 10 μg i.v. + stimulator 1 μg) it was 2341 ± 416 ng/mL; in assay [1] (peptide antagonist 30 μg i.v. + stimulator 1 μg), 1948 ± 450 ng/mL; in assay [1] (peptide antagonist 100 μg i.v. + stimulator 1 μg) it was 1639 ± 221 ng/mL.

For “DPhe-Ala-Phe-DPal-NH2 [6-DPhe-Ala-Phe-DPal-NH2]”, the “Unstimulated Basal GH release” value was found to be 170 ± 19 ng/mL in assay [2] (peptide 3 μg/ml), 181 ± 31 ng/mL in assay [2] (peptide 10 μg/ml), 161 ± 20 ng/mL in assay [2] (peptide 30 μg/ml) and 146 ± 21 ng/mL in assay [2] (peptide 100 μg/ml).

Consider `COc1ccccc1N1CCN(C(=O)c2cc3ccccc3cc2C(=O)N2CCN(c3ccccc3OC)CC2)CC1` [2,3-di[N-(2-methoxylphenyl)piperazyl-naphthalenecarboxylamide], for which the “Stimulated GH release (P + S)” value in assay [2] (compound 1 μg/ml + stimulator 1 ng/ml) was 654 ± 18 ng/mL; in assay [2] (compound 3 μg/ml + stimulator 1 ng/ml), 442 ± 4 ng/mL; in assay [2] (compound 10 μg/ml + stimulator 1 ng/ml), 537 ± 28 ng/mL and 648 ± 16 ng/mL; in assay [2] (compound 30 μg/ml + stimulator 1 ng/ml) it was 309 ± 46 ng/mL. The “Unstimulated GH release” value in assay [2] (compound alone 1 μg/ml) is 338 ± 3 ng/mL; in assay [2] (compound alone 3 μg/ml) it was 204 ± 10 ng/mL; in assay [2] (compound alone 10 μg/ml), 262 ± 4 ng/mL and 136 ± 11 ng/mL; in assay [2] (compound alone 30 μg/ml), 118 ± 8 ng/mL.

On to “DPal-Phe-DTrp-Phe-Met-NH2 [12-DPal-Phe-DTrp-Phe-Met-NH2]”, for which the “Unstimulated Basal GH release” value in assay [2] (peptide 3 μg/ml) amounted to 1081 ± 50 ng/mL; in assay [2] (peptide 10 μg/ml), 997 ± 30 ng/mL; in assay [2] (peptide 30 μg/ml) it was 425 ± 25 ng/mL.
